The values below come from patent US6071525A, “Whitening cosmetics containing mulberrin” (priority 1997, dated 2000).

“Also recorded” adds a separate entry of the source. Where two headings read alike, the source gives them in different places.

Data set [1] has as its system tyrosinase. The settings on record: background; cited from earlier work.
Data set [2] deals with skin. In words: Whitening effect (general statement). The settings on record: versus Cortex mori, kojic acid, arbutin and Ramulus mori extract.
Data set [3] deals with B-16 melanoma (ATCC CRL 6323) cell line. Kind of data set: Effect for melanin synthesis in melanocytes (B-16 melanoma). It counts as cell-based, mouse. As for the experimental part:
As melanocytes, commercially available B-16 melanoma (ATCC CRL 6323) cell line derived from mouse was used. The melanoma cell line was inoculated in DMEM culture medium containing glucose (4.5 g/l), 10% serum and 1% antibiotic agent, and cultivated in a 50 ml T-flask at 37° C. After cultivation under a condition of 5% CO2 for 24 hours, the culture solution was treated with 0.05% trypsin containing 0.02% EDTA to isolate cells, which was then inoculated in a 50 ml T-flask and cultivated for 48 hours. At this time, the number of cells was 5.76×10^6 cells/flask. A diluted solution of mulberrin in DMEM medium at a proper concentration was incorporated to the cultivated melanoma cells, and the mixture was cultivated at 37° C. for 5 days. After finishing cultivation, culture medium was thoroughly removed, and the residue was treated with 1 ml of saline-phosphate buffer solution (PBS) containing 0.02% EDTA and 0.05% trypsin to isolate cells, which were then centrifuged for 5 minutes to collect pure cells. The obtained cells were treated with a solution of 5% trichloroacetate (TCA), stirred, and centrifuged. Precipitated melanin was washed with saline-phosphate buffer solution, and treated with 1N NaOH to dissolve melanin therein. Absorbance at 475 nm was measured. Melanin concentration was determined from standard concentration curve of synthetic melanin (produced by Sigma).

Data set [4] concerns the target tyrosinase. In words: Tyrosinase inhibition effect (mushroom tyrosinase, tyrosine substrate, absorbance at 475 nm). It counts as biochemical. The settings on record: pH 6.8, 37° C., 10 minutes.
Method: The substrate, tyrosine was used as a solution (0.1 mg/ml) dissolved in 0.05 M sodium phosphate buffer (pH 6.8). […] Then 200 U/ml tyrosinase (0.5 ml) was added thereto, and the reaction performed at the same temperature for 10 minutes. As a control group, buffer solution (0.5 ml) was added instead of the compound. The reaction was quenched by placing the test tube containing the reaction mixture on ice. Absorbance was measured at a wavelength of 475 nm by using a spectrophotometer.
The test system of data set [5] is skin. The settings on record: background; cited from earlier work.
Data set [6] has as its system skin. The settings on record: background; cited from earlier work. This is another data set of the same source.

`O=C1O[C@H]([C@@H](O)CO)C(O)=C1O` [Ascorbic acid (vitamin C), Ascorbic acid]: the “inhibition of tyrosinase (in words)” value in the data set with tyrosinase [1] was “relatively low activity in inhibition of tyrosinase”.

As for `O=c1cc(CO)occ1O` [Kojic acid, kojic acid], the “inhibition of tyrosinase (in words)” value in the data set on tyrosinase [1] is given as “high activity”.

As to `CC(C)=CCc1c(-c2ccc(O)cc2O)oc2c(CC=C(C)C)c(O)cc(O)c2c1=O` [Mulberrin, mulberrin], the “whitening effect compared with conventional whitening agents (in words)” value in the data set on skin [2] is “much more intensive whitening effect than conventional whitening agents”. In addition, the “inhibition of melanin synthesis (in words)” value in data set [3] is given as “very excellent effect in inhibiting melanin synthesis”; in data set [3] (listed as mulberrin), “strong whitening agent inhibiting melanin synthesis in melanocytes; also recorded: very strong inhibition effect of melanin synthesis”. The inhibition at 10 µg/mL in data set [3] (Mus musculus, B16, 120 h, mulberrin 10 μg/ml, 5 days, 37° C., read-out: Inhibition ratio of melanin synthesis) stood at 54.4%. For the same compound, in data set [3] (Mus musculus, B16, 120 h, mulberrin 20 μg/ml, 5 days, 37° C., read-out: Inhibition ratio of melanin synthesis), the inhibition at 20 µg/mL is 66.8%. Further, the inhibition at 50 µg/mL in data set [3] (Mus musculus, B16, 120 h, mulberrin 50 μg/ml, 5 days, 37° C., read-out: Inhibition ratio of melanin synthesis) is 74.8%. The inhibition at 100 µg/mL in data set [3] (Mus musculus, B16, 120 h, mulberrin 100 μg/ml, 5 days, 37° C., read-out: Inhibition ratio of melanin synthesis) was 89.3%. The Content of melanin in data set [3] (mulberrin 10 μg/ml, 5 days, 37° C.) amounted to 1.95 pg/cell; in data set [3] (mulberrin 20 μg/ml, 5 days, 37° C.) it was 1.42 pg/cell; in data set [3] (mulberrin 50 μg/ml, 5 days, 37° C.), 1.07 pg/cell; in data set [3] (mulberrin 100 μg/ml, 5 days, 37° C.), 0.46 pg/cell. The “IC50 (concentration required for 50% inhibition of tyrosinase activity)” value at tyrosinase [4] amounted to 0.50 µg/mL.

For `Oc1ccc(O)cc1` [Hydroquinone], in the data set with skin [5], the “carcinogenicity (in words)” value is “recognized as a carcinogen” and the “skin irritation (in words)” value was “irritates the skin strongly”. For the same compound, the “whitening activity (in words)” value in the data set with skin [6] is “irreversible whitening activity”.
